From ChEMBL document CHEMBL1125524, “Adenosine A1 antagonists. 2. Structure-activity relationships on diuretic activities and protective effects against acute renal failure” (J Med Chem, 1992)

How the values were obtained:
Rattus norvegicus [1] = experiment: Ratio of urinary excretion value (Na+ concentration) in treated rats to that in control rats, at a peroral dose of 6.25 mg/Kg; assay type: functional, Urine
Rattus norvegicus [2] = experiment: Ratio of urinary excretion value (urinary volume) in treated rats to that in control rats, at a peroral dose of 6.25 mg/Kg; assay type: functional, Urine
Rattus norvegicus [3] = experiment: Urea nitrogen concentration measured after intraperitoneal administration of 10 mg/kg of compound to rats(vehicle 150.7+/-3.4); assay type: functional
Rattus norvegicus [4] = experiment: Serum creatinine concentration measured after intraperitoneal administration of 10 mg/kg of compound to rats(vehicle 4.98+/-0.08); assay type: functional
Rattus norvegicus [5] = experiment: Percent inhibition of serum creatinine by the compound given as ratio of Cr value in treated to vehicle treated ones after intraperitoneal administration of 10 mg/kg of compound to rats(vehicle 4.98+/-0.08); assay type: functional; conditions: ip
Rattus norvegicus [6] = experiment: Ratio of urinary excretion value (Na+ concentration) in treated rats to that in control rats, at a peroral dose of 25 mg/Kg; assay type: functional, Urine
Rattus norvegicus [7] = experiment: Oral diuretic activity was measured after oral administration of 25 mg/kg to rats(control volume is 0.89+/-0.06); assay type: functional, Urine
Rattus norvegicus [8] = experiment: Percent inhibition of Urea nitrogen by the compound given as ratio of UN value in treated to vehicle treated ones after intraperitoneal administration of 10 mg/kg of compound to rats(vehicle 150.7+/-3.4); assay type: functional; conditions: ip
Rattus norvegicus [9] = experiment: Effect on urinary excretion potassium and sodium after oral administration of 25 mg/kg to rats(potassium and sodium excretion in control rat is […]+/-[…]); assay type: functional, Urine
Rattus norvegicus [10] = experiment: Ratio of urinary excretion value (urinary volume) in treated rats to that in control rats, at a peroral dose of 25 mg/Kg; assay type: functional, Urine
Rattus norvegicus [11] = experiment: Ratio of sodium ion/potassium ion concentration in treated rats to that in control rats, at a peroral dose of 25 mg/Kg; assay type: functional
Adenosine A2 receptor = Adenosine A2 receptor (Rattus norvegicus, UniProt P29276+P30543)
Rattus norvegicus [12] = experiment: Urea nitrogen concentration measured after intraperitoneal administration of 1 mg/kg of compound to rats(vehicle 120.9+/-23.3); assay type: functional
Rattus norvegicus [13] = experiment: Ratio of sodium ion/potassium ion concentration in treated rats to that in control rats, at a peroral dose of 1.6 mg/Kg; assay type: functional
Rattus norvegicus [14] = experiment: Percent inhibition of serum creatinine by the compound given as ratio of Cr value in treated to vehicle treated ones after intraperitoneal administration of 10 mg/kg of compound to rats(vehicle 2.13+/-0.27); assay type: functional; conditions: ip
Rattus norvegicus [15] = experiment: Effect on urinary excretion potassium and sodium after oral administration of 25 mg/kg to rats(potassium and sodium excretion in control rat is 0.146+/-0.017); assay type: functional, Urine
Rattus norvegicus [16] = experiment: Ratio of urinary excretion value (Na+ concentration) in treated rats to that in control rats, at a peroral dose of 1.6 mg/Kg; assay type: functional, Urine
Rattus norvegicus [17] = experiment: Effect on urinary excretion potassium and sodium after oral administration of 1.6 mg/kg to rats(potassium and sodium excretion in control rat is 0.173+/-0.016); assay type: functional, Urine
Rattus norvegicus [18] = experiment: Serum creatinine concentration measured after intraperitoneal administration of 10 mg/kg of compound to rats(vehicle 2.13+/-0.27); assay type: functional
Rattus norvegicus [19] = experiment: Percent inhibition of Urea nitrogen by the compound given as ratio of UN value in treated to vehicle treated ones after intraperitoneal administration of 1 mg/kg of compound to rats(vehicle 120.9+/-23.3); assay type: functional; conditions: ip
Rattus norvegicus [20] = experiment: Oral diuretic activity was measured after oral administration of 25 mg/kg to rats(control volume is 0.96+/-0.20); assay type: functional, Urine
Rattus norvegicus [21] = experiment: Ratio of urinary excretion value (urinary volume) in treated rats to that in control rats, at a peroral dose of 1.6 mg/Kg; assay type: functional, Urine
Rattus norvegicus [22] = experiment: Percent inhibition of serum creatinine by the compound given as ratio of Cr value in treated to vehicle treated ones after intraperitoneal administration of 1 mg/kg of compound to rats(vehicle 3.06+/-0.68); assay type: functional; conditions: ip
Rattus norvegicus [23] = species: Rattus norvegicus; assay type: functional, Urine; conditions: dose 1.6 mg/kg; route oral
Rattus norvegicus [24] = experiment: Serum creatinine concentration measured after intraperitoneal administration of 1 mg/kg of compound to rats(vehicle 3.06+/-0.68); assay type: functional
Rattus norvegicus [25] = experiment: Effect on urinary excretion potassium and sodium after oral administration of 1.6 mg/kg to rats(potassium and sodium excretion in control rat is 0.147+/-0.015); assay type: functional, Urine
Rattus norvegicus [26] = experiment: Urea nitrogen concentration measured after intraperitoneal administration of 1 mg/kg of compound to rats(vehicle 105.2+/-14.9); assay type: functional
Rattus norvegicus [27] = experiment: Urea nitrogen concentration measured after intraperitoneal administration of 10 mg/kg of compound to rats(vehicle 129.1+/-14.5); assay type: functional
Rattus norvegicus [28] = experiment: Oral diuretic activity was measured after oral administration of 1.6 mg/kg to rats(control volume is 0.96+/-0.09); assay type: functional, Urine
Rattus norvegicus [29] = experiment: Serum creatinine concentration measured after intraperitoneal administration of 10 mg/kg of compound to rats(vehicle 3.93+/-0.45); assay type: functional
Rattus norvegicus [30] = experiment: Serum creatinine concentration measured after intraperitoneal administration of 1 mg/kg of compound to rats(vehicle 3.62+/-0.52); assay type: functional
Adenosine receptor A1 = target: T1, Adenosine receptor A1 (Cavia porcellus, UniProt P47745)
T1 sequence (P47745 whole entry): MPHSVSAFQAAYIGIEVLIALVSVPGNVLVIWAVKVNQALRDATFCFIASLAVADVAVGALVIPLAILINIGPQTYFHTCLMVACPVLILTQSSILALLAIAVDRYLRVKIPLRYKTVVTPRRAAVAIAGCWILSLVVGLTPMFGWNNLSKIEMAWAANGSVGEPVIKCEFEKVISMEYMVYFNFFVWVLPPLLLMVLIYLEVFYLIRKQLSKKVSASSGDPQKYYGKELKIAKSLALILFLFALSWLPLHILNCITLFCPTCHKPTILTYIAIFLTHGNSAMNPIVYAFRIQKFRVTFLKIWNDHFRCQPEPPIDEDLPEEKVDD
Description: Binding affinity against adenosine A1 receptor in guinea pig forebrain membranes using N6-[3H]cyclohexyladenosine as radioligand

Question: With `CCCn1c(=O)c2c(nc(C(C3CC3)C3CC3)n2CC)n(CCC)c1=O` as the compound, how does the T/C (Rattus norvegicus [1]) read?
Answer: 1.24

Question: And the T/C (Rattus norvegicus [2])?
Answer: 1.19

Question: What about the UN (Rattus norvegicus [3]) of the same compound?
Answer: 142.7 mg/dL

Question: And the Cr (Rattus norvegicus [4])?
Answer: 4.5 mg/dL

Question: What about the inhibition in vivo at 10 mg/kg (Rattus norvegicus [5]) of the same compound?
Answer: 10%

Question: And the T/C (Rattus norvegicus [6])?
Answer: 2.14

Question: And the Urine volume (Rattus norvegicus [7])?
Answer: 2.15 ml 6hr-1 100g-1

Question: What about the inhibition in vivo at 10 mg/kg (Rattus norvegicus [8]) of the same compound?
Answer: 5%

Question: What about the Na (Rattus norvegicus [9]) of the same compound?
Answer: 0.348 m equiv 6hr-1 100g-1

Question: What about the T/C (Rattus norvegicus [10]) of the same compound?
Answer: 2.42

Question: What about the “Na+/K+” value (Rattus norvegicus [11]) of the same compound?
Answer: 1.51

Question: And the Ki (Adenosine A2 receptor)?
Answer: 14 µM

Question: `CCCn1c(=O)c2nc(C3C(C)(C)CCC3(C)C)[nH]c2n(CCC)c1=O` was tested. Which UN (Rattus norvegicus [12]) did it give?
Answer: 113.4 mg/dL

Question: What about the “Na+/K+” value (Rattus norvegicus [13]) of the same compound?
Answer: 1.12

Question: And the inhibition in vivo at 10 mg/kg (Rattus norvegicus [14])?
Answer: 33%

Question: What about the T/C (Rattus norvegicus [6]) of the same compound?
Answer: 1.18

Question: What about the Na (Rattus norvegicus [15]) of the same compound?
Answer: 0.172 m equiv 6hr-1 100g-1

Question: What about the T/C (Rattus norvegicus [16]) of the same compound?
Answer: 1.23

Question: What about the T/C (Rattus norvegicus [10]) of the same compound?
Answer: 1.4

Question: What about the Na (Rattus norvegicus [17]) of the same compound?
Answer: 0.213 m equiv 6hr-1 100g-1

Question: What about the Cr (Rattus norvegicus [18]) of the same compound?
Answer: 1.43 mg/dL

Question: What about the inhibition in vivo at 1 mg/kg (Rattus norvegicus [19]) of the same compound?
Answer: 6%

Question: And the “Na+/K+” value (Rattus norvegicus [11])?
Answer: 1.21

Question: What about the Urine volume (Rattus norvegicus [20]) of the same compound?
Answer: 1.34 ml 6hr-1 100g-1

Question: What about the T/C (Rattus norvegicus [21]) of the same compound?
Answer: 1.42

Question: What about the inhibition in vivo at 1 mg/kg (Rattus norvegicus [22]) of the same compound?
Answer: 1%

Question: What about the Urine volume (Rattus norvegicus [23]) of the same compound?
Answer: 1.5 ml 6hr-1 100g-1

Question: What about the Ki (Adenosine A2 receptor) of the same compound?
Answer: > 100 µM

Question: And the Cr (Rattus norvegicus [24])?
Answer: 3.03 mg/dL

Question: `Cn1c(=O)c2nc(C(C3CC3)C3CC3)[nH]c2n(C)c1=O` was tested. Which “Na+/K+” value (Rattus norvegicus [13]) did it give?
Answer: 1.18

Question: What about the Na (Rattus norvegicus [25]) of the same compound?
Answer: 0.183 m equiv 6hr-1 100g-1

Question: And the UN (Rattus norvegicus [26])?
Answer: 121.4 mg/dL

Question: What about the UN (Rattus norvegicus [27]) of the same compound?
Answer: 57.2 mg/dL

Question: What about the T/C (Rattus norvegicus [16]) of the same compound?
Answer: 1.24

Question: And the Urine volume (Rattus norvegicus [28])?
Answer: 0.87 ml 6hr-1 100g-1

Question: And the Cr (Rattus norvegicus [29])?
Answer: 1.78 mg/dL

Question: And the T/C (Rattus norvegicus [21])?
Answer: 0.91

Question: What about the Cr (Rattus norvegicus [30]) of the same compound?
Answer: 4.1 mg/dL

Question: And the Ki (Adenosine A2 receptor)?
Answer: 2.7 µM

Question: Which Ki (Adenosine receptor A1) does the source give for `CCCn1c(=O)c2[nH]c(CC3CCCCC3)nc2n(CCC)c1=O` here?
Answer: 11 nM
